Data set [1] relates to T-Zellen. The data set is described as follows: Further studies: influence on the function of T cells. The settings on record: no method or concentration given. Type of data set: cell-based.
For data set [2], the system named is Visna-Virus. Description: Visna virus test in cell culture (inhibition of virus-induced cytopathic effect, method of Narayan et al.). Type of data set: cell-based. The settings on record: Visna-virus-infected cell cultures treated with the compound at non-cytotoxic concentrations. From the text:
In Zellkulturen, die mit Visna-Virus infiziert sind, treten 5 bis 10 Tage nach der Infektion ausgeprägte virusinduzierte, zytopathische Effekte auf. Durch Behandlung der infizierten Zellkulturen mit 9-(2,3-Anhydro-β-D-lyxofuranosyl)adenin konnte das Auftreten dieser zytopathischen Effekte verhindert werden. Der Visna-Virus-Test wurde nach der Methode von O. Narayan et al., Journal of Infectious Dieseases 135, 5, 1977, 800-806 durchgeführt. Dazu wurde 9-(2,3-Anhydro-β-D-lyxofuranosyl)adenin - in Produktionsmedium gelöst - in nicht zytotoxischen Konzentrationen in 96er Microtiterplatten verdünnt. Anschließend wurden Fibroblastenzellen vom Schaf (5 x 10⁴ Zellen pro Napf) - in Produktionsmedium suspendiert - zu jedem Näpfchen zugeführt. Jedes Näpfchen erhielt dann 50 µl einer Visna-Viruslösung mit einer Titer von ca. 2,5 x 10⁴ TCID₅₀ (TCID = tissue culture infectious dose). Diese Virusdosis entspricht einer MOI (Multiplizität der Infektion) von ca. 0,05.
Unter diesen Infektionsbedingungen resultierte zwischen Tag 5 und Tag 10 in einer Infektionskontrolle ohne Substanz ein virusinduzierter, zytopathischer Effekt. Die infizierten und behandelten Zellen und die Kontrollzellen wurden 7 Tage bei 37°C, 5 % CO₂ inkubiert. […]

Consider `Nc1ncnc2c1ncn2[C@@H]1O[C@H](CO)[C@@H]2O[C@@H]21` [9-(2,3-Anhydro-β-D-lyxofuranosyl)adenin], for which, in data set [1], the “Funktion von T-Zellen” value is given as “nicht beeinflußt”. Moreover, in data set [2], the “Auftreten der virusinduzierten zytopathischen Effekte” value is listed as “verhindert”.

The record behind these values is patent publication EP0305843A2, “Antiviral agent” (BAYER AG, priority 1987, dated 1989).
